Test results reported in paper PMC5580238 (ACS chemical neuroscience, 2016).
“Also recorded” adds a separate entry of the source. Like-named read-outs stand apart in the source and are kept apart here.

Key:
[1] = target: T807 site in AD brain tissue homogenates (NFTs) (Homo sapiens, UniProt P10636); assay type: binding; details: for Inhibition of specific binding of [3H]T807 to AD brain tissue homogenate: compound at 1 μM concentration
[2] = target: PIB site in AD brain tissue homogenates (thioflavin-T binding site on β-amyloid plaques) (Homo sapiens, UniProt P05067)
PIB site in AD brain tissue homogenates (thioflavin-T binding site on β-amyloid plaques), sequence (P05067 672-711 limits assumed): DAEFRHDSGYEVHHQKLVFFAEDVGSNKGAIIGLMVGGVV

[3] = target: THK-523 site in AD brain tissue homogenates (NFTs) (Homo sapiens, UniProt P10636); assay type: binding; details: for Inhibition of specific binding of [3H]THK-523 to AD brain tissue homogenate: compound at 1 μM concentration; for Ki: Ki with [3H]THK-523 as reference radioligand
THK-523 site in AD brain tissue homogenates (NFTs), sequence (P10636 623-708 limits assumed): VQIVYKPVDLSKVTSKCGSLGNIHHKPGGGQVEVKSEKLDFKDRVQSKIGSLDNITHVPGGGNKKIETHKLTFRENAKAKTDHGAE

[4] = Ligand solubility in binding assay media; assay type: physicochemical; details: in water or PBS
AD brain homogenate = AD brain homogenate (Homo sapiens, UniProt P10636); assay: Titration; assay type: binding; details: titration with [18F]THK-523 plus THK-523; curve fit
AD brain homogenate, sequence (P10636 2-758): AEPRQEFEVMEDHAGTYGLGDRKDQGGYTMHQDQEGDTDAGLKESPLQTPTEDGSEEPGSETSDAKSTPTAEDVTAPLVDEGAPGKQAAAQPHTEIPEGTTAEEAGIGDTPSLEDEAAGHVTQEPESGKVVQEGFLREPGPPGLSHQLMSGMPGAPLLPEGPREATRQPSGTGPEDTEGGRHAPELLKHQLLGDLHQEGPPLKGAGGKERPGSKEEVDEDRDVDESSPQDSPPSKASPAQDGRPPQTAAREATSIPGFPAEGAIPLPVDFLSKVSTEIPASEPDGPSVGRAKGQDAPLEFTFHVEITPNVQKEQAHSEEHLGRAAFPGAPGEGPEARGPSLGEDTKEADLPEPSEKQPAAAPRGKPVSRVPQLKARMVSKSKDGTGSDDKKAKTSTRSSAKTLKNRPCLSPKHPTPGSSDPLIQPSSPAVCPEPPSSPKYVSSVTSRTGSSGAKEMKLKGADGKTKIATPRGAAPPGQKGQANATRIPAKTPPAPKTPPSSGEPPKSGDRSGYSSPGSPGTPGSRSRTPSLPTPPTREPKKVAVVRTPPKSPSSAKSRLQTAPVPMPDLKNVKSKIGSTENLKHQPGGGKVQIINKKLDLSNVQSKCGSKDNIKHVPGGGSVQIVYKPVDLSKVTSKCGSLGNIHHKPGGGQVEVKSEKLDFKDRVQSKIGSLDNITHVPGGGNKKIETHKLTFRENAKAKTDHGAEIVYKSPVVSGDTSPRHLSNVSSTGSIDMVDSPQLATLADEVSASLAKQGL

T807 site in AD brain tissue homogenates (NFTs), sequence (P10636 623-708 limits assumed): as the sequence (P10636 623-708 limits assumed) above

| SMILES | Ki [1] | Ki [2] | further results |
| --- | --- | --- | --- |
| Nc1ccc(-c2ccc3cc(OCCOCCOCCOCCF)ccc3n2)cc1 [10d, 4-(6-(2-(2-(2-(2-Fluoroethoxy)ethoxy)ethoxy)ethoxy)quinolin-2-yl)aniline] | > 1000 nM | > 1000 nM |  |
| Nc1ccc(-c2ccc3cc(OCCOCCN4CCOC4=O)ccc3n2)cc1 [12c, 3-(2-(2-((2-(4-Aminophenyl)quinolin-6-yl)oxy)ethoxy)ethyl)-oxazolidin-2-one] | > 1000 nM | > 1000 nM |  |
| Nc1ccc(-c2ccc3cc(OCCOCCNCCO)ccc3n2)cc1 [12f, 2-((2-(2-((2-(4-Aminophenyl)quinolin-6-yl)oxy)ethoxy)ethyl)-amino)ethan-1-ol] | > 1000 nM | > 1000 nM |  |
| Fc1ccc(-c2ccc3c(c2)[nH]c2ccncc23)cn1 [T807] |  |  | Inhibition of specific binding of [3H]THK-523 to AD brain tissue homogenate ([3]; 1 µM): failed to inhibit; also recorded: very low inhibition; Inhibition of specific binding of [3H]T807 to AD brain tissue homogenate [1]: full inhibition |
| Nc1ccc(-c2ccc3cc(OCCF)ccc3n2)cc1 [THK-523, 4-(6-(2-Fluoroethoxy)quinolin-2-yl)aniline] | 425 ± 383 nM | > 1000 nM | Ki ([3]; 20% ethanol wash): 28 ± 6 nM; Ki ([3]; Tris-buffer (pH 7.2) wash): 52 ± 14 nM; Ki ([3]; neat ethanol wash): 45 ± 12 nM; Inhibition of specific binding of [3H]THK-523 to AD brain tissue homogenate [3]: full inhibition; Inhibition of specific binding of [3H]T807 to AD brain tissue homogenate ([1]; 1 µM): failed to inhibit; Inhibition of specific binding of [3H]T807 to AD brain tissue homogenate ([1]; listed as THK-523 (10a), 1 µM): very low inhibition; Solubility [4]: insoluble |
| Nc1ccc(-c2ccc3cc(OCCF)ccc3n2)cc1 [[^18F]THK-523] |  |  | Bmax (concentration of maximal binding sites) (AD brain homogenate): 1639 ± 235 dpm; NS (coefficient of nonspecific binding) (AD brain homogenate): 169 ± 3 |

The next lines start with results.

| Ki [1] | Ki [2] | SMILES | further results |
| --- | --- | --- | --- |
| > 1000 nM | > 1000 nM | Nc1ccc(-c2ccc3cc(OCCOCCF)ccc3n2)cc1 [10b, 4-(6-(2-(2-Fluoroethoxy)ethoxy)quinolin-2-yl)aniline] |  |
| > 1000 nM | > 1000 nM | Nc1ccc(-c2ccc3cc(OCCOCCOCCF)ccc3n2)cc1 [10c, 4-(6-(2-(2-(2-Fluoroethoxy)ethoxy)ethoxy)quinolin-2-yl)aniline] |  |
|  | 43 ± 39 nM | Nc1ccc(-c2ccc3cc(OCCOCCOCCOCCOCCF)ccc3n2)cc1 [10e, 4-(6-((14-Fluoro-3,6,9,12-tetraoxatetradecyl)oxy)quinolin-2-yl)-aniline] |  |
|  | > 500 nM | Nc1ccc(-c2ccc3cc(OCCOCCOCCOCCOCCOCCF)ccc3n2)cc1 [10f, 4-(6-((17-Fluoro-3,6,9,12,15-pentaoxaheptadecyl)oxy)quinolin-2-yl)aniline] |  |
